# Assay results: article PMC4532424, “The Novel Cyclophilin Inhibitor CPI-431-32 Concurrently Blocks HCV and HIV-1 Infections via a Similar Mechanism of Action” (PLoS ONE, 2015)
# Like-named read-outs stand apart in the source and are kept apart here.
# Columns and labels:
# HIV-1 JR-CSF [1] = test: HIV-1 mono-infection of CD4+ T-lymphocytes, p24 ELISA; assay type: cell-based; details: Fig 1A
# Text: Hemoglobin determinations at every donation protect the donor from phlebotomy-induced anemia. The donor pool also provides investigators with a mix of gender and minority subjects, and recruitment is ongoing for underrepresented minorities. At the present time, the NBDS has 320 active normal blood donors enrolled. Use of the Normal Blood Donor Service is considered “human subjects” research and each investigator who wants to use the service must submit a protocol to the IRB for review and approval. Dr. Gallay has current IRB approval for the human blood obtained for research described in this manuscript. Protocol No: IRB-15-6552. Full name of the IRB is "Scripps IRB". […] Consent from blood donors was obtained verbally. The authors have no access to identifying donor information for these samples.
# HCV JFH-1 [2] = test: HCV mono-infection of Huh7.5.1 cells, core ELISA; assay type: cell-based; details: Fig 1B
# HIV-1 JR-CSF [3] = test: HIV-1/HCV co-culture co-infection, HIV-1 p24 ELISA; assay type: cell-based
# Protocol: (§1) CD4+ T-lymphocytes and Huh7.5.1 cells uninfected or infected for 3 h as described above were mixed in a single flask and HIV-1 and HCV replication monitored over a period of 3 weeks as described above.
# (§2) HIV-1 target cells—CD4+ T-lymphocytes—and HCV target cells—hepatoma cells—were placed in a single chamber (flask), exposed to both HIV-1 and HCV, and viral replication monitored over time by p24 capsid and core ELISAs, respectively.
# (§3) CD4+ T-lymphocytes (A) and Huh7.5.1 cells (B) (0.5 x 10^6 cells) (triplicates) were exposed to HIV-1 JR-CSF and HCV JFH-1. Drugs (2 μM) were added 3 h pre-viral exposure (top panels) or 3 days post-viral exposure (bottom panels). Viral replications were monitored by HIV-1 p24 and HCV core ELISAs. C. CD4+ T-lymphocytes (0.5 x 10^6 cells) (triplicates) were exposed to HIV-1 JR-CSF. Drugs were initially added 3 days post-viral exposure (2 μM) and then daily (0.5 μM). Viral replications were monitored by HIV-1 p24 and HCV core ELISAs. […] D. Model for the HIV-1/HCV co-culture system.
# HCV JFH-1 [4] = test: HIV-1/HCV co-culture co-infection, HCV core ELISA; assay type: cell-based
# Protocol: as §1, §2, §3
# human T cells = details: cited from earlier work
# [5] = drug treatments begun 3 h before virus addition
# [6] = single dose added 3 days post-infection
Compound,Effect on HIV-1 replication (in words) (HIV-1 JR-CSF [1]),Effect on HCV replication (in words) (HCV JFH-1 [2]),Effect on HIV-1 replication (in words) (HIV-1 JR-CSF [3]; [5]),Effect on HCV replication (in words) (HCV JFH-1 [4]; [5]),Effect on HCV replication (in words) (HCV JFH-1 [4]; [6]),"Cellular toxicity (in words) (human T cells; general statement on other CypI, no reference given)",Effect on HIV-1 replication (in words) (HIV-1 JR-CSF [3]; [6]),Cellular toxicity (in words) (human T cells)
"COC(=O)N[C@H](C(=O)N1CCC[C@H]1c1nc(-c2ccc(-c3ccc(-c4c[nH]c([C@@H]5CCCN5C(=O)[C@@H](NC(=O)OC)C(C)C)n4)cc3)cc2)c[nH]1)C(C)C [Daclatasvir, daclatasvir]",had no effect,fully blocked HCV replication,did not,completely prevented,completely eradicated,,,
C/C=C/C[C@@H](C)[C@@H](O)[C@H]1C(=O)N[C@@H](CC)C(=O)N(C)CC(=O)N(C)[C@@H]([C@@H](C)CC)C(=O)N[C@@H](C(C)C)C(=O)N(C)[C@@H](CC(C)C)C(=O)N[C@@H](C)C(=O)N[C@H](C)C(=O)N(C)[C@@H](CC(C)C)C(=O)N(C)[C@@H](CC(C)C)C(=O)N(C)[C@@H](C(C)C)C(=O)N1C [NIM811],,,,,,lack of cellular toxicity,,
"Cc1c(O)cccc1C(=O)N[C@@H](CSc1ccccc1)[C@H](O)CN1C[C@H]2CCCC[C@H]2C[C@H]1C(=O)NC(C)(C)C [Nelfinavir, nelfinavir]",totally blocked replication,had no effect,totally prevented HIV-1 replication,did not,,,completely eradicated,
C/C=C/C[C@@H](C)[C@@H](O)[C@H]1C(=O)N[C@@H](CC)C(=O)N(C)[C@H](SCCN(C)C)C(=O)N(C)[C@@H](CC(C)(C)O)C(=O)N[C@@H](C(C)C)C(=O)N(C)[C@@H](CC(C)C)C(=O)N[C@@H](C)C(=O)N[C@H](C)C(=O)N(C)[C@@H](CC(C)C)C(=O)N(C)[C@@H](CC(C)C)C(=O)N(C)[C@@H](C(C)C)C(=O)N1C [SCY-635],,,,,,,,lack of cellular toxicity
